Values joined by “and” are separate entries in the source; they are usually repeats but may differ in a detail not shown here. Equal values may be shown once.

The results in this text go back to patent publication US20150265691A1 (priority 2006, published 2015).

Format in all cases: binding
The test system of assay [1] is rabbit anti-B. anthracis spore polyclonal IgG antibodies.
Assay [2] concerns rabbit anti-anthrax spore IgG.
Assay [3] concerns rabbit anti-anthrax spore IgG. This is another data set of the same source.
The test system of assay [4] is rabbit anti-B. anthracis spore polyclonal IgG antibodies. The source holds these as a separate data set.

For orientation: IC50 means the midpoint of a concentration-inhibition curve. A high value points to weaker potency. With `COC(=O)CCCCCO[C@@H]1O[C@H](C)[C@@H](NC(=O)CC(C)(C)O)[C@H](O)[C@H]1OC` [Saccharide 1, 5-(Methoxycarbonyl)pentyl 4-(3-hydroxy-3-methylbutanamido)-2-O-methyl-4,6-dideoxy-β-D-glucopyranoside], in assay [1], the “blocking of antibody reactivity with anthrose-containing tri- and tetra-saccharides” value was “blocked the antibody reactivity”; the “inhibition of other antibody reactivities: binding to isolichenin and Pn 23 polysaccharide” value was “no significant inhibition”. In addition, in assay [2], the IC50 was determined as 0.688 nM and the relative inhibiting powers worked out at 43.3. Moreover, the “I^50” value in assay [3] was 7.3 nmol. Moreover, in assay [4], the “IgG signal detected by glycan arrays (n = 3) Mean” value (shortened to “IgG signal detected”) is recorded as 1.44 and the “antibody reactivity detected by glycan arrays” value (“antibody reactivity detected” below) is on record as “marginally reactive”.
In assay [2], `COC(=O)CCCCCO[C@@H]1O[C@@H](C)[C@H](O)[C@@H](O[C@@H]2O[C@H](C)[C@@H](NC(=O)CC(C)(C)O)[C@H](O)[C@H]2OC)[C@H]1O` [Saccharide 2, 5-(Methoxycarbonyl)pentyl 4-(3-hydroxy-3-methylbutanamido)-2-O-methyl-4,6-dideoxy-β-D-glucopyranosyl-(1→3)-α-L-rhamnopyranoside] yielded an IC50 of 0.019 nM and a relative inhibiting powers of 1.18. Further, in assay [4], the “IgG signal detected” value turned out to be 1.65 and the “antibody reactivity detected” value is “marginally reactive”.
Turning to `COC(=O)CCCCCO[C@@H]1O[C@@H](C)[C@H](O)[C@@H](O)[C@H]1O[C@@H]1O[C@@H](C)[C@H](O)[C@@H](O[C@@H]2O[C@H](C)[C@@H](NC(=O)CC(C)(C)O)[C@H](O)[C@H]2OC)[C@H]1O` [Saccharide 3, 5-(Methoxycarbonyl)pentyl 4-(3-hydroxy-3-methylbutanamido)-2-O-methyl-4,6-dideoxy-β-D-glucopyranosyl-(1→3)-α-L-rhamnopyranosyl-(1→2)-α-L-rhamnopyranoside], in assay [2], the IC50 turned out to be 0.016 nM and the relative inhibiting powers is reported as 1.00. In assay [4], the “IgG signal detected” value was found to be 2.73 and the “antibody reactivity detected” value was “significant amounts of IgG antibodies”.
For `COC(=O)CCCCCO[C@H]1O[C@@H](C)[C@H](O)[C@@H](O)[C@H]1O[C@@H]1O[C@@H](C)[C@H](O)[C@@H](O[C@@H]2O[C@@H](C)[C@H](O)[C@@H](O[C@@H]3O[C@H](C)[C@@H](NC(=O)CC(C)(C)O)[C@H](O)[C@H]3OC)[C@H]2O)[C@H]1O` [Saccharide 4, 5-(Methoxycarbonyl)pentyl 4-(3-hydroxy-3-methylbutanamido)-2-O-methyl-4,6-dideoxy-β-D-glucopyranosyl-(1→3)-α-L-rhamnopyranoyl-(1→3)-α-L-rhamnopyranosyl-(1→2)-β-L-rhamnopyranoside], the “I^50” value in assay [3] was 0.23 nmol. Moreover, in assay [4], the “IgG signal detected” value turned out to be 5.16 and the “antibody reactivity detected” value is given as “significant amounts of IgG antibodies”.
Turning to `COC(=O)CCCCCO[C@@H]1O[C@@H](C)[C@H](O)[C@@H](O)[C@H]1O[C@@H]1O[C@@H](C)[C@H](O)[C@@H](O[C@@H]2O[C@@H](C)[C@H](O)[C@@H](O[C@@H]3O[C@H](C)[C@@H](NC(=O)CC(C)(C)O)[C@H](O)[C@H]3OC)[C@H]2O)[C@H]1O` [Saccharide 5, 5-(Methoxycarbonyl)pentyl 4-(3-hydroxy-3-methylbutanamido)-2-O-methyl-4,6-dideoxy-β-D-glucopyranosyl-(1→3)-α-L-rhamnopyranoyl-(1→3)-α-L-rhamnopyranosyl-(1→2)-α-L-rhamnopyranoside], in assay [3], the “I^50” value worked out at 0.18 nmol. Moreover, in assay [4], the “IgG signal detected” value worked out at 5.19 and the “antibody reactivity detected” value was “significant amounts of IgG antibodies”.
On to `COC(=O)CCCCCO[C@@H]1O[C@@H](C)[C@H](O)[C@@H](O)[C@H]1O[C@@H]1O[C@@H](C)[C@H](O)[C@@H](O[C@@H]2O[C@@H](C)[C@H](O)[C@@H](O)[C@H]2O)[C@H]1O` [Saccharide 17, 5-(Methoxycarbonyl)pentyl α-L-rhamnopyranosyl-(1→3)-α-L-rhamnopyranosyl-(1→2)-α-L-rhamnopyranoside], for which the “IgG reactivities (Ratio of Sg./bg.) Mean” value in assay [1] is 1.04 and 0.97 and 1.00 and 0.99. In addition, the “IgG signal detected” value in assay [4] was 0.98.
